Test results taken from US8592407B2, “Pyrrolo[2,1-c][1,4] benzodiazepine derivatives with dithiocarbamate side chains and process for the preparation thereof” (Council of Scientific & Industrial Research, priority 2008, dated 2013).

What was measured:
[1] = system: RXF 393; test: NCI in vitro cytotoxicity (SRB); assay type: cell-based; details: Homo sapiens; Renal RXF 393; 48 h exposure
[2] = system: A498; test: NCI in vitro cytotoxicity (SRB); assay type: cell-based; details: Homo sapiens; Renal A498; 48 h exposure
[3] = system: DU-145; test: NCI in vitro cytotoxicity (SRB); assay type: cell-based; details: Homo sapiens
[4] = system: HCC-2998; test: NCI in vitro cytotoxicity (SRB); assay type: cell-based; details: Homo sapiens; Colon HCC-2998; 48 h exposure
[5] = system: Leukemia panel; test: NCI screen, panel average; assay type: cell-based, human; details: for LC50 (50% lethal concentration): Homo sapiens, read-out: Log10 LC50 (concentration in mol/L causing 50% lethality) (converted); for Log10 GI50 (concentration in mol/L): Leukemia, average of six to eight cell lines
[6] = system: MDA-MB-; test: NCI in vitro cytotoxicity (SRB); assay type: cell-based; details: Homo sapiens; Breast MDA-MB-; 48 h exposure
[7] = system: HCT-15; test: NCI in vitro cytotoxicity (SRB); assay type: cell-based; details: Homo sapiens; Colon HCT-15; 48 h exposure
[8] = system: SN12C; test: NCI in vitro cytotoxicity (SRB); assay type: cell-based; details: Homo sapiens; Renal SN12C; 48 h exposure
[9] = system: Colon panel; test: NCI screen, panel average; assay type: cell-based, human; details: for Log10 GI50 (concentration in mol/L): Colon, average of six to eight cell lines; for LC50: Homo sapiens, read-out: Log10 LC50 (concentration in mol/L causing 50% lethality) (converted)
[10] = system: SK-MEL-28; test: NCI in vitro cytotoxicity (SRB); assay type: cell-based; details: Homo sapiens; Melanoma SK-MEL-28; 48 h exposure
[11] = system: HS 578T; test: NCI in vitro cytotoxicity (SRB); assay type: cell-based; details: Homo sapiens; Breast HS 578T; 48 h exposure
[12] = system: PC-3; test: NCI in vitro cytotoxicity (SRB); assay type: cell-based; details: Homo sapiens; Prostate PC-3; 48 h exposure
[13] = system: LOX IMVI; test: NCI in vitro cytotoxicity (SRB); assay type: cell-based; details: Homo sapiens
[14] = system: BT-549; test: NCI in vitro cytotoxicity (SRB); assay type: cell-based; details: Homo sapiens; Breast BT-549; 48 h exposure
[15] = system: SR; test: NCI in vitro cytotoxicity (SRB); assay type: cell-based; details: Homo sapiens
[16] = system: SF-268; test: NCI in vitro cytotoxicity (SRB); assay type: cell-based; details: Homo sapiens
[17] = system: IGROV1; test: NCI in vitro cytotoxicity (SRB); assay type: cell-based; details: Homo sapiens, IGROV-1
[18] = system: T-47D; test: NCI in vitro cytotoxicity (SRB); assay type: cell-based; details: Homo sapiens, T47D; Breast T-47D; 48 h exposure
[19] = system: M14; test: NCI in vitro cytotoxicity (SRB); assay type: cell-based; details: Homo sapiens; Melanoma M14; 48 h exposure
[20] = system: CCRF-CEM; test: NCI in vitro cytotoxicity (SRB); assay type: cell-based; details: Homo sapiens; Leukemia CCRF-CEM; 48 h exposure
[21] = system: MALME-3M; test: NCI in vitro cytotoxicity (SRB); assay type: cell-based; details: Homo sapiens
[22] = system: OVCAR-3; test: NCI in vitro cytotoxicity (SRB); assay type: cell-based; details: Homo sapiens
[23] = system: UO-31; test: NCI in vitro cytotoxicity (SRB); assay type: cell-based; details: Homo sapiens; Renal UO-31; 48 h exposure
[24] = system: NCI-H322M; test: NCI in vitro cytotoxicity (SRB); assay type: cell-based; details: Homo sapiens; Non-smallcell lung NCI-H322M; 48 h exposure
[25] = system: Prostate panel; test: NCI screen, panel average; assay type: cell-based, human; details: for CC50: Homo sapiens, read-out: Log10 LC50 (concentration in mol/L causing 50% lethality) (converted); for Log10 GI50 (concentration in mol/L): Prostate, average of six to eight cell lines
[26] = system: UACC-257; test: NCI in vitro cytotoxicity (SRB); assay type: cell-based; details: Homo sapiens; Melanoma UACC-257; 48 h exposure
[27] = system: HOP-62; test: NCI in vitro cytotoxicity (SRB); assay type: cell-based; details: Homo sapiens
[28] = system: Melanoma panel; test: NCI screen, panel average; assay type: cell-based, human; details: for LC50: Homo sapiens, read-out: Log10 LC50 (concentration in mol/L causing 50% lethality) (converted); for Log10 GI50 (concentration in mol/L): Melanoma, average of six to eight cell lines
[29] = system: KM12; test: NCI in vitro cytotoxicity (SRB); assay type: cell-based; details: Homo sapiens; Colon KM12; 48 h exposure
[30] = system: UACC-62; test: NCI in vitro cytotoxicity (SRB); assay type: cell-based; details: Homo sapiens; Melanoma UACC-62; 48 h exposure
[31] = system: OVCAR-8; test: NCI in vitro cytotoxicity (SRB); assay type: cell-based; details: Homo sapiens
[32] = system: A549/ATCC; test: NCI in vitro cytotoxicity (SRB); assay type: cell-based; details: Homo sapiens; Non-smallcell lung A549/ATCC; 48 h exposure
[33] = system: ACHN; test: NCI in vitro cytotoxicity (SRB); assay type: cell-based; details: Homo sapiens; Renal ACHN; 48 h exposure
[34] = system: Non-small-cell-lung panel; test: NCI screen, panel average; assay type: cell-based, human; details: for LC50: Homo sapiens, read-out: Log10 LC50 (concentration in mol/L causing 50% lethality) (converted); for Log10 GI50 (concentration in mol/L): Non-small-cell-lung, average of six to eight cell lines
[35] = system: MDA-MB-468; test: NCI in vitro cytotoxicity (SRB); assay type: cell-based; details: Homo sapiens
[36] = system: EKVX; test: NCI in vitro cytotoxicity (SRB); assay type: cell-based; details: Homo sapiens; Non-smallcell lung EKVX; 48 h exposure
[37] = system: MOLT-4; test: NCI in vitro cytotoxicity (SRB); assay type: cell-based; details: Homo sapiens
[38] = system: SNB-19; test: NCI in vitro cytotoxicity (SRB); assay type: cell-based; details: Homo sapiens; CNS SNB-19; 48 h exposure
[39] = system: Colon HCT-15; details: human
[40] = system: Neuroblastoma IMR-32; details: human
[41] = Melanoma LOX IMVI, 48 h exposure
[42] = Melanoma MALME-3M, 48 h exposure
[43] = Non-smallcell lung HOP-62, 48 h exposure
[44] = Breast MDA-MB-468, 48 h exposure

COc1cc2c(cc1OCCCN1CCN(C(=S)SCCC(C#N)(c3ccccc3)c3ccccc3)CC1)N=C[C@@H]1CCCN1C2=O [Compound 12b, 3-cyano-3,3-diphenylpropyl 4-(3-[(11aS)-7-(methyloxy)-5-oxo-2,3,5,11a-tetrahydro-1H-benzo[e]pyrrolo[1,2-a][1,4]diazepin-8-yl]oxypropyl)hexahydro-1-pyrazinecarbodithioate]
GI50 [1]: 190 nM | GI50 [2]: 910 nM | GI50 ([3]; Prostate DU-145, 48 h exposure): 260 nM | GI50 ([3]; prostate DU-145): 260 nM | GI50 [4]: 1640 nM | LC50 (50% lethal concentration) [5]: 55000 nM | Log10 GI50 (concentration in mol/L) [5]: −6.63 mol/L | GI50 [6]: 1410 nM | GI50 [7]: 1810 nM | GI50 [8]: 640 nM | Log10 GI50 (concentration in mol/L) [9]: −6.02 mol/L | LC50 [9]: 8510 nM | GI50 [10]: 1520 nM | GI50 [11]: 560 nM | GI50 [12]: 340 nM | GI50 [13, 41]: 600 nM | GI50 ([13]; melanoma LOX IMVI): 600 nM | GI50 [14]: 920 nM | GI50 ([15]; Leukemia SR, 48 h exposure): 180 nM | GI50 ([15]; leukemia SR): 180 nM | GI50 ([16]; SF-268, CNS SF268): 280 nM | GI50 ([16]; CNS SF-268, 48 h exposure): 280 nM | GI50 ([17]; Ovarian IGROV1, 48 h exposure): 300 nM | GI50 ([17]; ovarian IGROV1): 300 nM | GI50 [18]: 570 nM | GI50 [19]: 1170 nM | GI50 [20]: 230 nM | GI50 [21, 42]: 930 nM | GI50 ([21]; melanoma MALME-3M): 930 nM | GI50 ([22]; Ovarian OVCAR-3, 48 h exposure): 280 nM | GI50 ([22]; ovarian OVCAR-3): 280 nM | GI50 [23]: 1100 nM | GI50 [24]: 1870 nM | CC50 [25]: 2400 nM | Log10 GI50 (concentration in mol/L) [25]: −6.51 mol/L | GI50 [26]: 2000 nM | GI50 [27, 43]: 120 nM | GI50 ([27]; non-small cell lung HOP-62): 210 nM | LC50 [28]: 5500 nM | Log10 GI50 (concentration in mol/L) [28]: −5.94 mol/L | GI50 [29]: 1070 nM | GI50 [30]: 1060 nM | GI50 ([31]; Ovarian OVCAR-8, 48 h exposure): 990 nM | GI50 ([31]; ovarian OVCAR-8): 990 nM | GI50 [32]: 1220 nM | GI50 [33]: 940 nM | LC50 [34]: 11000 nM | Log10 GI50 (concentration in mol/L) [34]: −6.07 mol/L | GI50 ([35]; MDA-MB-468, breast MDA-MEI-468): 280 nM | GI50 [35, 44]: 280 nM | GI50 [36]: 2290 nM | GI50 ([37]; Leukemia MOLT-4, 48 h exposure): 220 nM | GI50 ([37]; leukemia MOLT-4): 220 nM | GI50 [38]: 1230 nM

COc1cc2c(cc1OCCCCN1CCN(C(=S)SCCC(C#N)(c3ccccc3)c3ccccc3)CC1)N=C[C@@H]1CCCN1C2=O [Compound 12c, 3-cyano-3,3-diphenylpropyl 4-(4-[(11aS)-7-(methyloxy)-5-oxo-2,3,5,11a-tetrahydro-1H-benzo[e]pyrrolo[1,2-a][1,4]diazepin-8-yl]oxybutyl)hexahydro-1-pyrazinecarbodithioate]
Preliminary in vitro cytotoxicity data [39]: 75% | GI50 [1]: 410 nM | GI50 [2]: 1190 nM | GI50 ([3]; Prostate DU-145, 48 h exposure): 1470 nM | GI50 [4]: 1570 nM | LC50 (50% lethal concentration) [5]: 100000 nM | Log10 GI50 (concentration in mol/L) [5]: −6.26 mol/L | GI50 [6]: 1530 nM | GI50 [7]: 1410 nM | GI50 [8]: 1160 nM | Log10 GI50 (concentration in mol/L) [9]: −5.93 mol/L | LC50 [9]: 72400 nM | GI50 [10]: 1750 nM | GI50 [11]: 720 nM | GI50 [12]: 690 nM | GI50 [13, 41]: 690 nM | GI50 [14]: 1420 nM | GI50 ([15]; Leukemia SR, 48 h exposure): 250 nM | GI50 ([16]; CNS SF-268, 48 h exposure): 1230 nM | GI50 ([17]; Ovarian IGROV1, 48 h exposure): 420 nM | GI50 [18]: 570 nM | GI50 [19]: 1250 nM | GI50 [20]: 530 nM | GI50 [21, 42]: 1360 nM | GI50 ([22]; Ovarian OVCAR-3, 48 h exposure): 1200 nM | GI50 [23]: 590 nM | GI50 [24]: 1400 nM | CC50 [25]: 7240 nM | Log10 GI50 (concentration in mol/L) [25]: −5.99 mol/L | GI50 [26]: 1970 nM | GI50 [27, 43]: 710 nM | LC50 [28]: 7410 nM | Log10 GI50 (concentration in mol/L) [28]: −5.90 mol/L | GI50 [29]: 1390 nM | GI50 [30]: 1320 nM | GI50 ([31]; Ovarian OVCAR-8, 48 h exposure): 1590 nM | GI50 [32]: 1610 nM | GI50 [33]: 1160 nM | LC50 [34]: 38900 nM | Log10 GI50 (concentration in mol/L) [34]: −5.97 mol/L | GI50 [35, 44]: 490 nM | GI50 [36]: 1880 nM | GI50 ([37]; Leukemia MOLT-4, 48 h exposure): 350 nM | GI50 [38]: 1670 nM | Preliminary in vitro cytotoxicity data [40]: 88
